We go through 6 molecules from patent publication US20080015166A1, “Barrier Integrity in Hiv Patients” (N.V. Nutricia, priority 2004, published 2008).

Assay [1] has as its system intestinal epithelial cell lines T84 monolayers. As to the kind of experiment: Effect of LC-PUFA on basal (spontaneous) barrier integrity: TER and 4 kD FITC dextran flux in T84 monolayers. It is filed as cell-based, human. The conditions noted are these: for effect on epithelial resistance (in words) / effect on molecular flux (in words): 100 μM, 72 hr, Table 1; for basal barrier integrity (TER), FIG. 1 (in words): time and dose (10 μM and 100 μM) dependent. As to the method: (§1) Monolayers (MC) of intestinal epithelial cell lines T84 (American Type Culture Collection (ATTC), Manassas, USA) were cultured on transwell filters (Corning, Costar B V, The Netherlands) allowing both mucosal and serosal sampling and stimulation of human intestinal epithelial cells. Two weeks post confluency the monolayers were incubated in the luminal compartment with polyunsaturated fatty acids ARA (arachidonic acid; 5,8,11,14-eicosatetraenoic acid), DHA (cis-4,7,10,13,16,19 docosahexaenoic acid), EPA (eicosapentaenoic acid) or control palmitic (C 16:0) acid (Palm) (Sigma, St. Louis, USA). The latter procedure was chosen to mimic the in vivo administration route of the dietary compounds. Cells were incubated with ARA, DHA, EPA, GLA or palmitic acid for 0, 24, 48 and 72 hr at different concentrations (10 μM and 100 μM). Experiments were performed to evaluate basal barrier integrity. The epithelial barrier function was determined by measuring the transepithelial resistance (TER, Ω.cm^2) was measured by epithelial volt-ohm meter (EVOM; World Precision Instruments, Germany) and permeability for 4 kD FITC dextran (paracellular permeability marker, Sigma, USA). Resistance (. Epithelial permeability for 4 kDa FITC-dextran was determined as follows. Prior to dextran fluxes the medium was refreshed with culture medium without phenol red for one hour followed by addition of 5 μl (stock 100 mg/ml) 4 kDa FITC-dextran to the lumenal compartment. After 30 min incubation 100 μl sample was collected from the serosal compartment and the fluorescent signal measured at excitation wavelength 485 nm and emission 520 nm (FLUOstar Galaxy®, BMG Labtechnologies, USA). FITC-dextran fluxes were calculated as pmol FITC-dextran/cm^2/h. Statistical analyses were performed using the ANOVA (SPSS version 10).

Assay [2] deals with intestinal epithelial cell lines T84 monolayers incubated with IL-4. As to the kind of experiment: Effect of LC-PUFA on IL-4 mediated barrier disruption: TER and flux in T84 monolayers. The conditions noted are these: for Permeability (IL-4 Flux) / Resistance (IL-4 TER) / effect on IL-4 mediated barrier disruption (flux), in words: 100 μM; for Permeability (IL-4 Flux) / Resistance (IL-4 TER): 48 hr pre-incubation then 48 hr co-incubation with IL-4 2 ng/ml; for effect on IL-4 mediated barrier disruption (flux), in words: Table 2; for IL-4 mediated barrier destruction (Flux), FIG. 2 (in words): time and dose (10 μM and 100 μM) dependent, 4 kD dextran flux. Format: cell-based, human. The method, then: as §1
Monolayers (MC) of intestinal epithelial cell lines T84 (ATCC, USA) were cultured on transwell filters (Corning, Costar B V, The Netherlands) allowing both mucosal and serosal sampling and stimulation of human intestinal epithelial cells. Two weeks post confluency the monolayers were incubated in the presence of IL-4 (2 ng/ml, serosal compartment, Sigma, USA ) with or without polyunsaturated fatty acids ARA, DHA, GLA, EPA, or control palmitic acid (10 μM or 100 μM, mucosal compartment, Sigma, St. Louis, USA). Cells were pre-incubated with GLA, ARA, DHA, EPA, or palmitic acid for 48 hr prior to the IL-4 incubation. The co-incubation of PUFA's and palmetic acid with IL-4 was continued for another 48 hr; while culture medium and additives were changed every 24 hr. The epithelial barrier function was determined by measuring the transepithelial resistance (TER) and permeability as described in example 1. Statistical evaluation was performed as described in example 1.

Assay [3] concerns MUC-2 expression in intestinal epithelial T84 cells. Particulars: 24 h, 0.025-4.0 mM, MC T84 and CC T84, compared to propionate and butyrate.

For the molecule `CCCCCC=CCC=CCC=CCC=CCCCC(=O)O` [ARA, 5,8,11,14-eicosatetraenoic acid], in assay [1], the “effect on epithelial resistance (in words)” value was “improve epithelial resistance”; the “effect on molecular flux (in words)” value is recorded as “reduce the molecular flux”; the “basal barrier integrity (TER), FIG. 1 (in words)” value (from here on “basal barrier integrity (TER)”) is “increased resistance”. In assay [2], the “Permeability (IL-4 Flux)” value is given as 273 ↓ pmol FITC-dextran/cm^2/h; the “Resistance (IL-4 TER)” value was 337 ↑ Ω.cm^2; the “effect on IL-4 mediated barrier disruption (flux), in words” value (“effect … (flux), in words” below) is “inhibit the increased flux caused by IL-4”; the “IL-4 mediated barrier destruction (Flux), FIG. 2 (in words)” value (from here on “IL-4 mediated barrier destruction (Flux)”) is reported as “decreased 4 kD dextran flux”.

With `CCC=CCC=CCC=CCC=CCC=CC/C=C\CCC(=O)O` [DHA, cis-4,7,10,13,16,19 docosahexaenoic acid], in assay [1], the “effect on epithelial resistance (in words)” value is “improve epithelial resistance”; the “effect on molecular flux (in words)” value is “reduce the molecular flux”; the “basal barrier integrity (TER)” value was “increased resistance”. Moreover, in assay [2], the “Permeability (IL-4 Flux)” value is 304 ↓ pmol FITC-dextran/cm^2/h; the “Resistance (IL-4 TER)” value was 328 ↑ Ω.cm^2; the “effect … (flux), in words” value is listed as “inhibit the increased flux caused by IL-4”; the “IL-4 mediated barrier destruction (Flux)” value is listed as “decreased 4 kD dextran flux”.

For `CC/C=C\C/C=C\C/C=C\C/C=C\C/C=C\CCCC(=O)O` [EPA, eicosapentaenoic acid], in assay [2], the “Permeability (IL-4 Flux)” value is recorded as 236 ↓ pmol FITC-dextran/cm^2/h and the “Resistance (IL-4 TER)” value is 375 ↑ Ω.cm^2.

Turning to `CCCCC/C=C\C/C=C\C/C=C\CCCCC(=O)O` [GLA, gamma linolenic acid], in assay [1], the “effect on epithelial resistance (in words)” value is reported as “improve epithelial resistance”; the “effect on molecular flux (in words)” value is “reduce the molecular flux”; the “basal barrier integrity (TER)” value is given as “increased resistance”. Besides, in assay [2], the “Permeability (IL-4 Flux)” value is 360 ↓ pmol FITC-dextran/cm^2/h; the “Resistance (IL-4 TER)” value is on record as 331 ↑ Ω.cm^2; the “effect … (flux), in words” value is “inhibit the increased flux caused by IL-4”; the “IL-4 mediated barrier destruction (Flux)” value is listed as “decreased 4 kD dextran flux”.

For `CCCCCCCCCCCCCCCC(=O)O` [Palmitic acid, palmitic acid, reference compound], in assay [1], the “effect on epithelial resistance (in words)” value is “opposite effects” and the “effect on molecular flux (in words)” value is recorded as “opposite effects”. Also, the “effect … (flux), in words” value in assay [2] is reported as “detrimental effect”.

Consider `CC(=O)O` [acetate], for which the “stimulating MUC-2 expression (mucus production), FIG. 4 (in words)” value in assay [3] was “more potent”.
